This is an account of results in PMC4526861, “Inhibition of protein kinase C by isojacareubin suppresses hepatocellular carcinoma metastasis and induces apoptosis in vitro and in vivo” (Scientific Reports, 2015).

One assay concerns the target T1, PKCδ (Homo sapiens, UniProt Q05655).
T1 construct: Endogenous cPKC (PKCα) and nPKC (PKCδ, PKCε and PKCμ) in HepG2 lysates were pulled down; endogenous in cells; host or cells: HepG2
Description: Cell-based pull-down assay, PKCδ. It is filed as binding. The note with it: HepG2 lysates. On the procedure: (§1) To identify whether ISJ and compound 7 target PKC in cells, we performed pull-down experiments using ISJ- and compound 7-coupled Sepharose beads with HepG2 cell lysates. Endogenous cPKC (PKCα) and nPKC (PKCδ, PKCε and PKCμ) in HepG2 lysates were pulled down by ISJ-coupled CNBr-activated Sepharose 4B beads (Fig. 5a).
(§2) The control beads were prepared by incubating the beads with DMSO. Proteins (500 μg) from lysed HepG2 cells were mixed with either the control beads, compound 7-coupled beads, or ISJ-coupled beads (100 μL) in reaction buffer [50 mM Tris (pH 7.5), 5 mM EDTA, 150 mM NaCl, 1 mM DTT, 0.01% NP-40, 2 μg/mL BSA, 1 mM PMSF, 1% protease inhibitor mixture]. After incubation with gentle rocking overnight at 4 °C, the beads were washed 5 times with washing buffer [50 mM Tris (pH 7.5), 5 mM EDTA, 150 mM NaCl, 1 mM DTT, 0.01% NP-40, 1 mM PMSF], and binding was visualized by western blotting.

A further assay has as its target T2, PKCε (Homo sapiens, UniProt Q02156).
T2 construct: Endogenous cPKC (PKCα) and nPKC (PKCδ, PKCε and PKCμ) in HepG2 lysates were pulled down; endogenous in cells; host or cells: HepG2
T2 sequence (Q02156 1-737): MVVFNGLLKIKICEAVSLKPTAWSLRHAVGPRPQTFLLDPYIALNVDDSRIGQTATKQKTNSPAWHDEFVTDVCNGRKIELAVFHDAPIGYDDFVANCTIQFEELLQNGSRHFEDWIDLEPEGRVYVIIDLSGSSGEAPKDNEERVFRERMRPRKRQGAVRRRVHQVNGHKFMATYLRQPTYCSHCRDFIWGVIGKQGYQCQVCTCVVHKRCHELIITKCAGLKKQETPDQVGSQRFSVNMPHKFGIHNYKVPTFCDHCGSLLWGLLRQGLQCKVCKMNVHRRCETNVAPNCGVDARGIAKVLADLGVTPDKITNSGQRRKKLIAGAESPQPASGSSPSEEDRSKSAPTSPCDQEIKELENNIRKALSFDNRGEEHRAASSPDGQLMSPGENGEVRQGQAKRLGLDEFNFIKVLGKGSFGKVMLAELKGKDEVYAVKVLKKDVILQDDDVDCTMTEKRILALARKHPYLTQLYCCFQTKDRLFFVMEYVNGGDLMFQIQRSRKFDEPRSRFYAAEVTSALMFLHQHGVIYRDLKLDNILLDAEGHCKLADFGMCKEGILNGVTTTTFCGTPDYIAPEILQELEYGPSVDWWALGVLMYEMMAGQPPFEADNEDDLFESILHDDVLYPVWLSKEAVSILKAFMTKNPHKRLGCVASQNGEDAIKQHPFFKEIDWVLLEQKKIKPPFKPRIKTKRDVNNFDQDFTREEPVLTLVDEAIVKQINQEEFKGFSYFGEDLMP
In words: Cell-based pull-down assay, PKCε. It is filed as binding. The note with it: HepG2 lysates. Here is the method: as §1, §2

In assay [1] the test system is MMP-9, FGFR-1, E-cadherin. In words: Western blot of invasion-related proteins, HepG2. The assay is classed as cell-based, human. The note with it: HepG2, 24 h. Here is the method:
(§3) Additional PKC targeting effects involved in the early response of major MAPK phosphorylation and the late response of HCC cell invasion and apoptosis were investigated. After 24 h of treatment with ISJ at the indicated concentrations, the total protein lysates from HCC cells were analyzed (Fig. 6). ISJ inhibited the phosphorylated, activated forms of c-Raf, MEK1/2 and ERK1/2 in the MAPK signaling pathway in both HepG2 and QGY-7703 cells (Fig. 6a). […] In contrast, E-cadherin expression was elevated, specifically at the highest concentration of ISJ (20 μM) (Fig. 6b). In addition, we analyzed several representative apoptotic proteins, including cleaved PARP (c-PARP), p53 and p21. […] These findings support our hypothesis that ISJ restrains HCC cell metastasis and induces HCC cell apoptosis by specifically inhibiting PKC.
(§4) The total membrane and cytosolic proteins were extracted using a Membrane and Cytosol Protein Extraction Kit (Beyotime). Extracted proteins from cells or animal tissues were separated by SDS-PAGE and transferred to polyvinylidene difluoride (PVDF) membranes (Bio-Rad). The PVDF membranes were blocked with 5% nonfat milk and incubated with primary antibodies overnight, followed by incubation with a donkey anti-rabbit or anti-mouse secondary antibody (IRDye 800, LI-COR, Biosciences). […] The intensity was quantitative with Quantity One software (Bio-Rad). […]

Another assay deals with HeLa-C3 cells. The arrangement: method as in PMID 18614188. The note with it: cited from earlier work.
A further assay relates to QGY-7703 cells. In words: Cell proliferation assay (CCK-8), QGY-7703. It is filed as cell-based, human. Here is the method:
The human HCC cell lines QGY-7703, SMMC-7721 and HepG2 and the liver cell line QSG-7701 were supplied by the Cell Resource Center, Institute of Life Sciences, Chinese Academy of Medical Science. QGY-7703, SMMC-7721 and QSG-7701 cells were cultured in 1640 medium (Gibco), and HepG2 cells were cultured in DMEM medium (Gibco) at 37 °C in moist air supplemented with 5% CO2. All media were supplemented with 10% fetal bovine serum (FBS) and 100 Units/mL of penicillin/streptomycin.
The cell viability assay was performed as previously reported using a Cell Counting Kit-8 (CCK-8; Dojindo, Kumamoto, Japan)[33][34]. The relative cell viability was presented as % inhibition and calculated using the following formula: […]

Assay [2] relates to phosphorylated c-Raf, MEK1/2 and ERK1/2. Description: Western blot of MAPK phosphorylation, QGY-7703. The assay is classed as cell-based, human. The note with it: QGY-7703, 24 h. On the procedure:
as §3, §4

T1 sequence (Q05655 whole entry): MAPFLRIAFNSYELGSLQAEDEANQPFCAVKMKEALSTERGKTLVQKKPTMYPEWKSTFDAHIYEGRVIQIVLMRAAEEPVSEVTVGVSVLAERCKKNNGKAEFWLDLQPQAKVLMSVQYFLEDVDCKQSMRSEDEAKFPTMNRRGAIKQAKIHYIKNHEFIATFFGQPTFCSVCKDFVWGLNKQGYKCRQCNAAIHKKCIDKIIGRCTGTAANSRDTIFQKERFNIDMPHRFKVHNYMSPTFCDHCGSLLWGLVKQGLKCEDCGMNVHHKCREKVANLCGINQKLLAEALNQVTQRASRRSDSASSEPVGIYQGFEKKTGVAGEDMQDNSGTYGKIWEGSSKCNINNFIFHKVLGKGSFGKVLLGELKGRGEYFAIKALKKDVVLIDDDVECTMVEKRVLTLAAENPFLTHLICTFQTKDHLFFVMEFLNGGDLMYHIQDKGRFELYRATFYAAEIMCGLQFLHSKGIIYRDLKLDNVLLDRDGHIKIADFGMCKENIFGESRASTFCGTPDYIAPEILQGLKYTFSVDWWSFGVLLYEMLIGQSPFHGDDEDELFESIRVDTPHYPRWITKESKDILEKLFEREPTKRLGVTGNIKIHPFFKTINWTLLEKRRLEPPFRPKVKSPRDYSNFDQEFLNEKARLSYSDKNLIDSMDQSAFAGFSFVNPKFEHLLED

For Isojacareubin [ISJ], the “pull-down of endogenous PKCδ by compound-coupled Sepharose 4B beads” value on PKCδ was “pulled down”. For the same substance, the “pull-down of endogenous PKCε by compound-coupled Sepharose 4B beads” value at PKCε is reported as “pulled down”. Besides, in assay [1], the “expression levels of MMP-9 and FGFR-1” value is recorded as “markedly reduced”. Besides, the E-cadherin expression result in assay [1] (specifically at 20 μM) is “elevated”. For the same substance, the “growth of HeLa-C3 cells” value in the assay on HeLa-C3 cells is on record as “inhibited the growth”. In addition, the “Inhibitory Ratio (%) QGY-7703” value in the assay on QGY-7703 cells (50 μM) is 83.69%. The substance also came in with an IC50 in the assay with QGY-7703 cells (mean ± SD, at least three independent experiments) of 4.65 ± 0.32 µM. Also, the “phosphorylated, activated forms of c-Raf, MEK1/2 and ERK1/2” value in assay [2] was “inhibited”.
